The target in one test is T1, human TLR9 (Homo sapiens, UniProt Q9NR96).
T1 construct: host or cells: HEK-Blue cells
T1 sequence (Q9NR96 26-1032): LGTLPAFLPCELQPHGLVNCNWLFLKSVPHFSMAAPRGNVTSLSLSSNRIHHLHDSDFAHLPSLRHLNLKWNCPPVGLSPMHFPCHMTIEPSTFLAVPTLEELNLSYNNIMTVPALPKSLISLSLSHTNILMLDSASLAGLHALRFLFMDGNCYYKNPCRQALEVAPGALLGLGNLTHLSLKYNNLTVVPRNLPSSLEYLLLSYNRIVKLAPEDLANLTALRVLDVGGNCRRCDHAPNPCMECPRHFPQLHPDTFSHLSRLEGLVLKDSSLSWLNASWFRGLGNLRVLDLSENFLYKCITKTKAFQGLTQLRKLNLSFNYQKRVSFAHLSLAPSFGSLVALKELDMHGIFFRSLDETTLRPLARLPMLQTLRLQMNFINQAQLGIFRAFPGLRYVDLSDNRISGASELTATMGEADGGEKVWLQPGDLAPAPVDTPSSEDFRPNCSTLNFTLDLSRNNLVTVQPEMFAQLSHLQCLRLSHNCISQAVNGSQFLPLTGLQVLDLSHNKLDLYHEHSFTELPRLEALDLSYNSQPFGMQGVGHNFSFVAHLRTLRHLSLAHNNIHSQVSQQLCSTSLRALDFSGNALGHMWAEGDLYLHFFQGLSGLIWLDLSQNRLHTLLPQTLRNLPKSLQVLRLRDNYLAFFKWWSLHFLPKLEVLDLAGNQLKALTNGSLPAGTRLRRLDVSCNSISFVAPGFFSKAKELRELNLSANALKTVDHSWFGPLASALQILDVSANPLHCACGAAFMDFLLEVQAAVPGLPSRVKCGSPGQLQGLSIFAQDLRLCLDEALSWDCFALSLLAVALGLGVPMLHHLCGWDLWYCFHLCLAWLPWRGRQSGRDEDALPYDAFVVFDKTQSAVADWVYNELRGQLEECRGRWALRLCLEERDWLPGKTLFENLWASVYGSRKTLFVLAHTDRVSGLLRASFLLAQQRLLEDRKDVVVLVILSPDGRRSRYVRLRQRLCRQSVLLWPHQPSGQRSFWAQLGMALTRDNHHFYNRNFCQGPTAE
As to the kind of experiment: TLR9 inhibition reporter assay (HEK-Blue cells, SEAP reporter, ODN2006 stimulation). In kind it is cell-based. Particulars: HEK-Blue cells overexpressing human TLR9, ODN2006 5 nM. The method in brief: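 Dose–response from 0.05 nM to 50 μM was run in HEK-Blue human TLR7, TLR8 and TLR9 reporter cells. After 30 min at room temperature with compound, ligand was added (TLR7 gardiquimod 7.5 μM; TLR8 R848 15.9 μM; TLR9 ODN2006 5 nM) and SEAP measured next day, at 22 h.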
For orientation: Reporter assays use an easily measured gene product as a stand-in for the process of interest.

The target in the next test is T2, human TLR7 (Homo sapiens, UniProt Q9NYK1).
T2 construct: host or cells: HEK-Blue cells
T2 sequence (Q9NYK1 27-1049): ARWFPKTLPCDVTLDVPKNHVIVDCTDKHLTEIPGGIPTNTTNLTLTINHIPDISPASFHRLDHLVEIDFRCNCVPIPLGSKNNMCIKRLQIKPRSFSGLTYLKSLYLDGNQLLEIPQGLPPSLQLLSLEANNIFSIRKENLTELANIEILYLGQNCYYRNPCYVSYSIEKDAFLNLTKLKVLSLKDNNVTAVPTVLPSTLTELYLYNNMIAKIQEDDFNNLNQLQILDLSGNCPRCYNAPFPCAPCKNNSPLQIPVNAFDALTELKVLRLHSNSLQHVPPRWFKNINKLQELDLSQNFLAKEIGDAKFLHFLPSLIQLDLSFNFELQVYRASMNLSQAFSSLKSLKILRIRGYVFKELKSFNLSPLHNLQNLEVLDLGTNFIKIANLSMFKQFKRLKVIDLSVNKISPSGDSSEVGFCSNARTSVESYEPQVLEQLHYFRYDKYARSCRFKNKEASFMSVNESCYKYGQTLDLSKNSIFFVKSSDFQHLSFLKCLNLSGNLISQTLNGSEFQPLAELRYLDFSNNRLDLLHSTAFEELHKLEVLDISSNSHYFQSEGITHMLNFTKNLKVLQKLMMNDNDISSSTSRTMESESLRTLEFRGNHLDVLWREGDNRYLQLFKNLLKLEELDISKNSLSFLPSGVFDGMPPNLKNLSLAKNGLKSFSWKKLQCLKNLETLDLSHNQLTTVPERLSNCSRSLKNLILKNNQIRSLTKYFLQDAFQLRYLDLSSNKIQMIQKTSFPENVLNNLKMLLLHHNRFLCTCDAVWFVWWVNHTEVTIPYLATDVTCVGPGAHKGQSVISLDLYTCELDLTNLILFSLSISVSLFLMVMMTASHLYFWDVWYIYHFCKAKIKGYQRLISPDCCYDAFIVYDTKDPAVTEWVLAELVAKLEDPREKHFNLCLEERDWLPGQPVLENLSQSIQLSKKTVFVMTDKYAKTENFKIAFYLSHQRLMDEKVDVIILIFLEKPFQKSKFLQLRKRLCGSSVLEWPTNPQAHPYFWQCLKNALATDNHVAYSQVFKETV
As to the kind of experiment: TLR7 inhibition reporter assay (HEK-Blue cells, SEAP reporter, gardiquimod stimulation). In kind it is cell-based. Particulars: HEK-Blue cells overexpressing human TLR7, gardiquimod 7.5 μM. The procedure, abridged:
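In this cell reporter format, test compounds at 0.05 nM-50 μM final incubate 22 h with seeded cells (TLR7 15000, TLR8 20,000 per well). SEAP read-out by HEK-Blue Detection medium yields % inhibition relative to agonist/DMSO and known-inhibitor wells.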

The structures appear in SMILES notation.

A word on the IC50: it is the concentration at which inhibition is half-maximal. Low readings indicate higher potency, high ones lower potency. Take `CCNCC(=O)N1CCC(c2ccc3[nH]c(-c4ccc(OC)c(OC)c4)c(C)c3c2)CC1` [Example 113, 1-(4-(2-(3,4-dimethoxyphenyl)-3-methyl-1H-indol-5-yl)piperidin-1-yl)-2-(ethylamino)ethan-1-one]: the results for the IC50 on human TLR9 and against human TLR7 were 885 nM and 371 nM, respectively.

As to `CNCCN1CCC(c2ccc3[nH]c(-c4ccc(OC)c(OC)c4)c(CC4CC4)c3c2)CC1` [Example 117, 2-(4-(3-(cyclopropylmethyl)-2-(3,4-dimethoxyphenyl)-1H-indol-5-yl)piperidin-1-yl)-N-methylethanamine di-trifluoroacetic acid], the IC50 against human TLR9 amounted to 882 nM; on human TLR7 it was 1340 nM.

As for `CCc1c(-c2ccc(OC)c(OC)c2)[nH]c2ccc(C3CCN(C(=O)CNCC(C)O)CC3)cc12` (stereo not shown) [Example 157, 1-(4-(2-(3,4-dimethoxyphenyl)-3-ethyl-1H-indol-5-yl)piperidin-1-yl)-2-((2-hydroxypropyl)amino)ethan-1-one], the values for the IC50 against human TLR9 and at human TLR7 were 2840 nM and 71 nM, respectively.

Turning to `CCc1c(-c2ccc(OC)c(OC)c2)[nH]c2ccc(C3CCN(C(=O)CN4CCC(N5CCCCC5)CC4)CC3)cc12` [Example 158, 2-([1,4′-bipiperidin]-1′-yl)-1-(4-(2-(3,4-dimethoxyphenyl)-3-ethyl-1H-indol-5-yl)piperidin-1-yl)ethan-1-one], the figures for the IC50 on human TLR9 and at human TLR7 were 678 nM and 219 nM, respectively.

Turning to `CCc1c(-c2ccc(OC)c(OC)c2)[nH]c2ccc(C3CCN(C(=O)CNC4(CO)CCCC4)CC3)cc12` [Example 160, 1-(4-(2-(3,4-dimethoxyphenyl)-3-ethyl-1H-indol-5-yl)piperidin-1-yl)-2-((1-(hydroxymethyl)cyclopentyl)amino)ethan-1-one], the half-inhibitory concentration (IC50) amounted to 1900 nM against human TLR9 and 118 nM against human TLR7.

Consider `CCc1c(-c2ccc(OC)c(OC)c2)[nH]c2ccc(C3CCN(C(=O)CNC45CC6CC(CC(O)(C6)C4)C5)CC3)cc12` [Example 163, 1-(4-(2-(3,4-dimethoxyphenyl)-3-ethyl-1H-indol-5-yl)piperidin-1-yl)-2-(((1r,3s,5R,7S)-3-hydroxyadamantan-1-yl)amino) ethan-1-one], for which the IC50 at human TLR9 amounted to 2170 nM; at human TLR7, 280 nM.

On to `CCc1c(-c2ccc(OC)c(OC)c2)[nH]c2ccc(C3CCN(C(=O)CNCC(C)(C)CO)CC3)cc12` [Example 164, 1-(4-(2-(3,4-dimethoxyphenyl)-3-ethyl-1H-indol-5-yl)piperidin-1-yl)-2-((3-hydroxy-2,2-dimethylpropyl)amino)ethan-1-one], for which the IC50 on human TLR9 came out at 2130 nM; against human TLR7 it was 160 nM.

On to `CCc1c(-c2ccc(OC)c(OC)c2)[nH]c2ccc(C3CCN(C(=O)CNC(CO)CO)CC3)cc12` [Example 165, 2-((1,3-dihydroxypropan-2-yl)amino)-1-(4-(2-(3,4-dimethoxyphenyl)-3-ethyl-1H-indol-5-yl)piperidin-1-yl)ethan-1-one], for which the 50% inhibitory concentration (IC50) on human TLR9 came to 5170 nM; on human TLR7 it was 107 nM.

As for `CCc1c(-c2ccc(OC)c(OC)c2)[nH]c2ccc(C3CCN(C(=O)CN4CCCN(C(C)=O)CC4)CC3)cc12` [Example 166, 2-(4-acetyl-1,4-diazepan-1-yl)-1-(4-(2-(3,4-dimethoxyphenyl)-3-ethyl-1H-indol-5-yl)piperidin-1-yl)ethan-1-one], the IC50 against human TLR9 amounted to 6440 nM; at human TLR7, 300 nM.

As to `CCc1c(-c2ccc(OC)c(OC)c2)[nH]c2ccc(C3CCN(C(=O)CN4CCOCC4)CC3)cc12` [Example 167, 1-(4-(2-(3,4-dimethoxyphenyl)-3-ethyl-1H-indol-5-yl)piperidin-1-yl)-2-morpholinoethan-1-one], the figures for the IC50 on human TLR9 and against human TLR7 were 33200 nM and 179 nM, respectively.

As for `CCc1c(-c2ccc(OC)c(OC)c2)[nH]c2ccc(C3CCN(C(=O)CN4CCCC(CO)C4)CC3)cc12` (stereo not shown) [Example 169, 1-(4-(2-(3,4-dimethoxyphenyl)-3-ethyl-1H-indol-5-yl)piperidin-1-yl)-2-(3-(hydroxymethyl)piperidin-1-yl)ethan-1-one], the IC50 was found to be 2100 nM on human TLR9 and 144 nM at human TLR7.

Regarding `CCc1c(-c2ccc(OC)c(OC)c2)[nH]c2ccc(C3CCN(C(=O)CN(C)C(C)C)CC3)cc12` [Example 170, 1-(4-(2-(3,4-dimethoxyphenyl)-3-ethyl-1H-indol-5-yl)piperidin-1-yl)-2-(isopropyl(methyl)amino) ethan-1-one], the IC50 against human TLR9 stood at 1670 nM; at human TLR7, 257 nM.

Take `CCc1c(-c2ccc(OC)c(OC)c2)[nH]c2ccc(C3CCN(C(=O)CN4CCN(C(C)=O)CC4)CC3)cc12` [Example 171, 2-(4-acetylpiperazin-1-yl)-1-(4-(2-(3,4-dimethoxyphenyl)-3-ethyl-1H-indol-5-yl)piperidin-1-yl)ethan-1-one]: the results for the IC50 against human TLR9 and at human TLR7 were not below 50000 nM and 488 nM, respectively.

Turning to `CCc1c(-c2ccc(OC)c(OC)c2)[nH]c2ccc(C3CCN(C(=O)CN4CCN(C(=O)C5CCCO5)CC4)CC3)cc12` (stereo not shown) [Example 172, 1-(4-(2-(3,4-dimethoxyphenyl)-3-ethyl-1H-indol-5-yl)piperidin-1-yl)-2-(4-(tetrahydrofuran-2-carbonyl)piperazin-1-yl)ethan-1-one], the IC50 on human TLR9 was 19300 nM; at human TLR7, 263 nM.

In the case of `CCCC[C@@H](CO)NCC(=O)N1CCC(c2ccc3[nH]c(-c4ccc(OC)c(OC)c4)c(CC)c3c2)CC1` [Example 174, (S)-1-(4-(2-(3,4-dimethoxyphenyl)-3-ethyl-1H-indol-5-yl)piperidin-1-yl)-2-((1-hydroxyhexan-2-yl)amino)ethan-1-one], the concentration for half-maximal inhibition (IC50) against human TLR9 turned out to be 2570 nM; on human TLR7, 1180 nM.

In the case of `CCc1c(-c2ccc(OC)c(OC)c2)[nH]c2ccc(C3CCN(C(=O)NC(C)C)CC3)cc12` [Example 182, 4-(2-(3,4-dimethoxyphenyl)-3-ethyl-1H-indol-5-yl)-N-isopropylpiperidine-1-carboxamide], the IC50 against human TLR9 was not below 50000 nM; at human TLR7 it was 610 nM.

Consider `COc1ccc(-c2[nH]c3ccc(C4CCN(C(=O)CNc5cc(C(C)(C)C)n[nH]5)CC4)cc3c2C(C)C)cc1OC` [Example 216, 2-((3-(tert-butyl)-1H-pyrazol-5-yl)amino)-1-(4-(2-(3,4-dimethoxyphenyl)-3-isopropyl-1H-indol-5-yl)piperidin-1-yl)ethan-1-one], for which the IC50 against human TLR9 was not below 50000 nM; against human TLR7, 212 nM.

(Values after patent US11180474B2 (BRISTOL-MYERS SQUIBB COMPANY, priority 2016, dated 2021).)
